Results reported in US9771353B2, “Kinase inhibitors based upon N-alkyl pyrazoles” (RESPIVERT LIMITED, priority 2013, dated 2017).
pIC50: −log10 of the molar value.

Experiments:
PBMCs [1] = assay: IL-2 and IFN gamma release in CD3/CD28 stimulated PBMC cells, assay (c); format: cell-based; settings: Homo sapiens
Protocol: PBMCs from healthy subjects are separated from whole blood using a density gradient (Lymphoprep, Axis-Shield Healthcare). Cells are added to a 96 well plate pre-coated with a mixture of CD3/CD28 monoclonal antibodies (0.3 μg/mL eBioscience and 3 μg/mL BD Pharmingen respectively). Compound at the desired concentration is then added to the wells and the plate left for 3 days under normal tissue culture conditions. Supernatants are harvested and IL-2 and IFN gamma release determined by Sandwich ELISA (Duo-set, R&D System). The IC50 is determined from the dose response curve.

PBMCs [2] = assay: LPS-induced TNFα/IL-8 release in PBMC cells, assay (b); format: cell-based; settings: Homo sapiens, LPS-stimulated PBMCs, read-out: IC50 Values for Inhibition of Cytokine Release, PBMCs IL-8
Protocol: Peripheral blood mononuclear cells (PBMCs) from healthy subjects are separated from whole blood using a density gradient (Lymphoprep, Axis-Shield Healthcare). The PBMCs are seeded in 96 well plates and treated with compounds at the desired concentration for 2 hours before addition of 1 ng/mL LPS (Escherichia Coli 0111:B4 from Sigma Aldrich) for 24 hours under normal tissue culture conditions (37° C., 5% CO2). The supernatant is harvested for determination of IL-8 and TNFα concentrations by sandwich ELISA (Duo-set, R&D systems) and read on the fluorescence microplate reader (Varioskan® Flash, ThermoFisher Scientific).

Syk = Syk (Homo sapiens (Human), UniProt P43405); assay: Syk enzyme inhibition (FRET, Z-LYTE); format: biochemical
Protocol: (§1) The enzyme inhibitory activities of compounds disclosed herein are determined by FRET using synthetic peptides labelled with both donor and acceptor fluorophores (Z-LYTE, Invitrogen Ltd., Paisley, UK).
The inhibitory activities of compounds of the invention against c-Src and Syk enzymes (Invitrogen), are evaluated in a similar fashion to that described hereinabove. The relevant enzyme (3000 ng/mL or 2000 ng/mL respectively, 2.5 μL) is incubated with the test compound (either 4 μg/mL, 0.4 μg/mL, 0.04 μg/mL, or 0.004 μg/mL, 2.5 μL each) for 2 hr at RT. The FRET peptides (8 μM, 2.5 μL), and appropriate ATP solutions (2.5 μL, 800 μM for c-Src, and 60 μM ATP for Syk) are then added to the enzymes/compound mixtures and incubated for 1 hr. Development reagent (protease, 5 μL) is added for 1 hr prior to detection in a fluorescence microplate reader (Varioskan® Flash, ThermoFisher Scientific).
(§2) In all cases, the site-specific protease cleaves non-phosphorylated peptide only and eliminates the FRET signal. Phosphorylation levels of each reaction are calculated using the ratio of coumarin emission (donor) over fluorescein emission (acceptor), for which high ratios indicate high phosphorylation and low ratios indicate low phosphorylation levels.

GSK3α = GSK3α (Homo sapiens (Human), UniProt P49840); assay: GSK 3α enzyme inhibition (FRET, Z-LYTE), Method 2; format: biochemical
Protocol: as §1
The inhibitory activities of compounds of the invention against the GSK 3α enzyme isoform (Invitrogen), are evaluated by determining the level of activation/phosphorylation of the target peptide. The GSK3-α protein (500 ng/mL, 2.5 μL) is mixed with the test compound (2.5 μL at either 4 μg/mL, 0.4 μg/mL, 0.04 μg/mL, or 0.004 μg/mL) for 2 hr at RT. The FRET peptide (8 μM, 2.5 μL), which is a phosphorylation target for GSK3α, and ATP (40 μM, 2.5 μL) are then added to the enzyme/compound mixture and the resulting mixture incubated for 1 hr. Development reagent (protease, 5 μL) is added for 1 hr prior to detection in a fluorescence microplate reader (Varioskan® Flash, ThermoFisher Scientific).
as §2
This method follows the same steps as Method 1 above, but utilises a shorter period of mixing of the test compound (105 minutes instead of 2 hours) with the GSK3-α protein.

d-U937 cells = assay: Accumulation of β catenin in d-U937 cells, assay (m); format: cell-based, human
Protocol: U937 cells, a human monocytic cell line, are differentiated into macrophage-type cells by incubation with PMA; (100 ng/mL) for between 48 to 72 hr. The cells are then incubated with either final concentrations of test compound or vehicle for 18 hr. The induction of β-catenin by the test compounds is stopped by replacing the media with 4% formaldehyde solution. Endogenous peroxide activity is neutralised by incubating with quenching buffer (100 μL, 0.1% sodium azide, 1% H2O2 in PBS with 0.05% Tween-20) for 20 min. The cells are washed with washing buffer (200 μL; PBS containing 0.05% Tween-20) and incubated with blocking solution (200 μL; 5% milk in PBS) for 1 hr, re-washed with washing buffer (200 μL) and then incubated overnight with anti-β-catenin antibody solution (50 μL) in 1% BSA/PBS (BD, Oxford, UK).
After washing with washing buffer (3×200 μL; PBS containing 0.05% Tween-20), cells are incubated with an HRP-conjugated secondary antibody solution (100 μL) in 1% BSA/PBS (Dako, Cambridge, UK) and the resultant signal is determined colourimetrically (OD: 450 nm with a reference wavelength of 655 nm) using TMB substrate (50 μL; R&D Systems, Abingdon, UK). This reaction is stopped by addition of 1N H2SO4 solution (50 μL). Cells are then washed with washing buffer and 2% crystal violet solution (50 μL) is applied for 30 min. After washing with washing buffer (3×200 μL), 1% SDS (100 μL) is added to each well and the plates are shaken lightly for 1 hr prior to measuring the absorbance at 595 nm (Varioskan® Flash, Thermo-Fisher Scientific).
The measured OD450-655 readings are corrected for cell number by dividing the OD450-655 by the OD595 readings. The percentage induction for each well is calculated relative to vehicle, and the ratio of induction normalised in comparison with the induction produced by a standard control comprising of N-(4-(4-(3-(3-tert-butyl-1-p-tolyl-1H-pyrazol-5-yl)ureido)naphthalen-1-yloxy)pyridin-2-yl)-2-methoxyacetamide (1 μg/mL) which is defined as 100%.

[3] = IL-2, read-out: IC50 Values for Inhibition of Cytokine Release, PBMCs IL-2
[4] = 1 μg/mL test compound, normalised to reference N-(4-(4-(3-(3-tert-butyl-1-p-tolyl-1H-pyrazol-5-yl)ureido)naphthalen-1-yloxy)pyridin-2-yl)-2-methoxyacetamide
[5] = 5 μg/mL test compound, normalised to the same reference compound

Chain of GSK3α (P49840 whole entry): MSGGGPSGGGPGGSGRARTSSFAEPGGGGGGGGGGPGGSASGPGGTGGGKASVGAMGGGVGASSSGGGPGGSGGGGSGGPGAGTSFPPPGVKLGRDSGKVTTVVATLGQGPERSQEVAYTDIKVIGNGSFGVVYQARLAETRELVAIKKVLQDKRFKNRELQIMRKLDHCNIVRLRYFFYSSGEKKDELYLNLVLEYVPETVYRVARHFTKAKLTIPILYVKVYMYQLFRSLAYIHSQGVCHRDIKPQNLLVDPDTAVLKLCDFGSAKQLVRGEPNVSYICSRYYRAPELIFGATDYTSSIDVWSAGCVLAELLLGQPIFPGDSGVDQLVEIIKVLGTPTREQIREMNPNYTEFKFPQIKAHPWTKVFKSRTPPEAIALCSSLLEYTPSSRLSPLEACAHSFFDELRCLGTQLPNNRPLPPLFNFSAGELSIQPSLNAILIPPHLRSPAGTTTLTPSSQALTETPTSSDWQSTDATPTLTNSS

pIC50 (Syk) | pIC50 (GSK3α) | SMILES | pIC50 (PBMCs [1]; IFNγ, read-out: IC50 Values for Inhibition of Cytokine Release, PBMCs IFNγ) | pIC50 (PBMCs [1]; [3]) | pIC50 (PBMCs [2]) | % β-catenin induction (d-U937 cells; [4]) | % β-catenin induction (d-U937 cells; [5]) | % β-catenin induction (d-U937 cells; 10 μg/mL test compound, normalised to the same reference compound)
6.27 | 5.28 | COCCOCCOCCOc1cc(Nc2nccc(Oc3ccc(NC(=O)Nc4cc(C(C)(C)C)nn4C)c4ccccc34)n2)cc(OC)c1 [Example 2, 1-(3-(tert-Butyl)-1-methyl-1H-pyrazol-5-yl)-3-(4-((2-((3-methoxy-5-(2-(2-(2-methoxy-ethoxy)ethoxy)ethoxy)phenyl)amino)pyrimidin-4-yl)oxy)naphthalen-1-yl)urea] | 8.21 | 7.95 | 8.44 | −2% | 6.5% | 4.5%
6.83 | 6.30 | C#Cc1cc(Nc2nccc(Oc3ccc(NC(=O)Nc4cc(C(C)(C)C)nn4C)c4ccccc34)n2)cc(C(=O)NCCN2CCOCC2)c1 [Example 1, 3-((4-((4-(3-(3-(tert-Butyl)-1-methyl-1H-pyrazol-5-yl)ureido)naphthalen-1-yl)oxy)pyrimidin-2-yl)amino)-5-ethynyl-N-(2-morpholinoethyl)benzamide] | – | 7.76 | 8.80 | −1.5% | 10.5% | –
